Laboratory results as given in patent publication US7595345B2, “Vitamin D receptor modulators” (Eli Lilly and Company, priority 2003, dated 2009).

Legend:
rat osteocalcin promoter = test: OCN (osteocalcin) promoter assay; assay type: cell-based; conditions: RG-15 (ROS 17/2.8) cells, 48 hr treatment, luciferase
Experimental: 3. The OCN (Osteocalcin) Promoter Assay
The OCN Promoter Assay is an indicator and marker for osteoporosis. Desired assay results are EC50 less than or equal to […]. Preferred assay results are less than […].
(3) Materials and Method for the OCN Promoter Assay:
The activation of osteocalcin by VDR ligands was evaluated in a rat osteoblast-like cell line RG-15 (ROS 17/2.8) stably expressing rat osteocalcin promoter fused with luciferase reporter gene. The stable cell lines were established as reported before (Activation of Osteocalcin Transcription involves interaction of protein kinase A- and Protein kinase C-dependent pathways. Boguslawski, G., Hale, L. V., Yu, X.-P., Miles, R. R., Onyia, J. E., Santerre R. F., Chandrasekhar, S. J. Biol. Chem. 275, 999-1006, 2000). Confluent RG-15 cells maintained in DMEM/F-12 medium (3:1) containing 5% FBS, 300 µg/ml G418 and at 37° C. under 5% CO2/95% air atmosphere were trypsinized (0.25% trypsin) and plated into white opaque 96-well cell culture plates (25000 cells/well). After 24 hr, cells (in DMEM/F-12 medium+2% FBS) were treated with various concentrations of compounds, dissolved in DMSO. The final DMSO concentration remained at 0.01% (v/v). After 48 hr treatment, the medium was removed, cells were lysed with 50 µl of lysis buffer (From Luciferase reporter assay system, Roche Diagnostics, Indianapolis, Ind.) and assayed for luciferase activity using the Luciferase Reporter Gene Assay kit from Boehringer Mannheim as per manufacturer's specifications.

[1] = Mouse hypercalcemia assay; assay type: in vivo; conditions: female DBF mice, oral gavage for 6 days, serum ionized calcium 6 hours after last dosing
Excerpt: 4. The Mouse Hypercalcemia Assay
(4) Materials and Method for the Mouse Hypercalcemia Assay: […]

KERtr cells = test: Keratinocyte proliferation assay; assay type: cell-based; conditions: Homo sapiens, 72 hr, BrdU incorporation, read-out: Kera. Prolif. IC50
Experimental: 5. The Keratinocyte Proliferation Assay
This Assay is indicative for the treatment of psoriasis.
(5) The Keratinocyte Proliferation Assay:
KERtr cells (Human skin keratinocyte transformed with a retrovirus vector, obtained from ATCC) were plated in 96-well flat-bottomed plates (3000 cells/well) in 100 µl keratinocyte serum free medium supplemented with bovine pituitary extract in the absence of EGF (Life Technologies, Rockville, Md.) and incubated at 37° C. for two days. The cells were treated with various concentrations of VDR ligands (ten-fold serial dilution from 10,000 nM to 0.1 nM in triplicate), dissolved in 100 µl keratinocyte serum free medium supplemented with bovine pituitary extract in the absence of EGF and incubated at 37° C. for 72 hr. BrdU (5-bromo-2′-deoxyuridine) incorporation was analyzed as a measure of DNA replication (Cell proliferation ELISA kit, Roche Diagnostics, Indianapolis, Ind.) and absorbance was measured at 405 nm. Potency values (IC50) values were determined as the concentration (nM) of compound that elicited a half-maximal response.

[2] = tested on: IL-10 production in PBMCs; test: Human IL-10 induction assay; assay type: cell-based; conditions: PBMC; TPA/PHA treated human PBMCs, IL-10 in supernatant by immunoassay
Excerpt: 6. The IL-10 Induction Assay
This is an in vitro efficacy assay for psoriasis, abscess and adhesion. Psoriasis involves both keratinocytes and immune cells. IL-10 is a unique cytokine because it is anti-inflammatory and immunosuppressive. This assay tells us whether a VDRM is able to function as an agonist in PBMCs (primary blood mononuclear cells) or not. A lower EC50 value is desirable in this assay since a compound with a lower EC50 value will be a better agonist in PBMCs. […] 7. Other Compound Assay Standards An alternative measure of the efficacy of compounds of the invention for treatment of osteoporosis is a numerical ratio calculated as follows: • Dose Threshold needed to induce hypercalcemia • divided by • Dose Threshold needed for bone efficacy An alternative measure of the efficacy of compounds of the invention for treatment of psoriasis is a numerical ratio calculated as follows: • Dose Threshold needed to induce hypercalcemia • divided by • Dose Threshold needed to induce keratinocyte proliferation For the above ratios, Dose Thresholds are determined from dose response curve data. 8. The CaT1 (Calcium Transport Protein 1) Assay The CaT1 Assay is an indicator for the undesirable condition of hypercalcemia. The higher the EC50 values for a compound the less calcemic it will be in vivo. […] Preferred assay results are greater than 1000 nM. Details of the Assay Methods: (1) Materials and Method for RXR-VDR Heterodimerization Assay: Transfection Method:
(6) Materials and Method for Human IL-10 Induction Assay:
Isolation of peripheral blood mononuclear cells (PBMCs): • A. Collect 50 ml of human blood and dilute with media, RPMI-1640. • B. Prepare sterile tubes with ficol. • C. Add diluted blood to tubes. • D. Centrifuge. • E. Discard the top layer and collect the cells from middle layer. • F. Divide all cells into four tubes and add media. • G. Centrifuge. • H. Aspirate off media and resuspend. • I. Collect all cells • J. Centrifuge. at 1200 rpm for 10 minutes. • K. Resuspend in RPMI-1640 with 2% FBS and count cells
Stimulation of PBMC: • L. Prepare TPA in DMSO. • M. Dissolve PHA in water. • N. Plate TPA/PHA treated PBMCs in well plates. • O. Incubate.
Treatment: • P. Prepare all compound dilutions in plain RPMI-1640 media. • Q. Add diluted compound. • R. Incubate.
Sample Collection and Assay: • S. Remove all the cells by centrifugation and assay the supernatant for IL-10 by immunoassay. • 1) T. Perform IL-10 assay using anti-human IL-10 antibody coated beads, as described by the manufacturer (Linco Research Inc., St. Charles, Mo.).

VDR (pGal4-VDR-LBD) = molecular target: T1, VDR (pGal4-VDR-LBD) (Homo sapiens, UniProt P11473); test: VDR CTF (Caco-2 cell co-transfection assay); assay type: cell-based; conditions: Caco-2 cells, Gal4-responsive reporter pFRLuc; surrogate for calcemic activity
T1 construct: the receptor expression vector pGal4-VDR-LBD (10 ng); expressed in transfected cells; host or cells: Caco-2 cells
T1 sequence (P11473 127-423 limits assumed): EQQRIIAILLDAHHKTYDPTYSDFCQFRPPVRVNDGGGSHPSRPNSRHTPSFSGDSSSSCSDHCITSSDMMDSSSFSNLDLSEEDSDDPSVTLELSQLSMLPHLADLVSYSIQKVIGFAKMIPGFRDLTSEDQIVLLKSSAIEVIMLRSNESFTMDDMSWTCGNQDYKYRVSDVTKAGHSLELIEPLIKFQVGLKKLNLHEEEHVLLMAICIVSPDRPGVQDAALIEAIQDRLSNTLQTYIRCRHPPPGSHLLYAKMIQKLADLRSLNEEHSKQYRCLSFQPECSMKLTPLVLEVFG
Experimental: 2. The Caco-2 Cell Co-Transfection Assay:
The Caco-2 cell assay is an indicator for the undesirable condition of hypercalcemia. This co-transfection assay is a surrogate assay for in vivo calcemic activity of VDR ligands. […] Preferred assay results are greater than 1000 nM.
(2) Materials and Method for the Caco-2 Cell Assay:
Caco-2 cells, grown in phenol red free, DMEM (Invitrogen, Carlsbad, Calif.) containing 10% charcoal-stripped FCS (Hyclone, Logan, Utah), were transfected with Fugene 6 reagent (Roche Diagnostics, Indianapolis, Ind.). Cells (5000/well) were plated 18 h before transfection in a 96 well plate. The Cells were transfected with Gal4-responsive reporter pFRLuc (150 ng, Stratagene, La Jolla Calif.) and the receptor expression vector pGal4-VDR-LBD (10 ng), along with Fugene 6 reagent (0.2 μl/well). The DNA-Fugene complex was formed by incubating the mixture for 30 min at room temperature. The cells were transfected in triplicate for 5 h, and treated with various concentrations of VDR ligands (form 0.01 nM to 10,000 nM concentration range) 18 h post-transfection. The luciferase activity was quantified using Steady-Glo reagent kit (Promega, Madison, Wis.) as per manufacturer's specifications.

Structure (SMILES) | EC50 (rat osteocalcin promoter; Rattus norvegicus, 48 h) | Mouse Hypercal [1] | IC50 (KERtr cells) | IC50 [2] | EC50 (VDR (pGal4-VDR-LBD)) | EC50 (rat osteocalcin promoter)
CCC(CC)(c1ccc(OCC(=O)C(C)(C)C)c(C)c1)c1ccc(OC[C@H](O)C(C)(C)C)c(C)c1 [EE, reference compound] | 0.341 µM | 1000 µg/kg/day | – | – | – | –
C=C1/C(=C\C=C2/CCC[C@]3(C)[C@@H]([C@H](C)CCCC(C)(C)O)CC[C@@H]23)C[C@@H](O)C[C@@H]1O [AA, 1α,25-dihydroxyvitamin D3, reference compound] | – | 0.06 µg/kg/day | – | – | – | –
CCC(CC)(c1ccc(OCC(=O)C(C)(C)C)c(C)c1)c1ccc(OCC(=O)C(C)(C)C)c(C)c1 [DD, reference compound] | 0.0311 µM | 1000 µg/kg/day | 1.06 µM | – | – | –
CCC(CC)(c1ccc(OCC(O)CO)c(C)c1)c1ccc(OCC(O)C(C)(C)C)c(C)c1 (stereo not drawn) [BB, 3-(4-{1-Ethyl-1-[4-(2-hydroxy-3,3-dimethyl-butoxy)-3-methyl-phenyl]-propyl}-2-methyl-phenoxy)-propane-1,2-diol, reference compound] | 0.00824 µM | 20 µg/kg/day | 0.01 µM | 0.028 µM | – | –
C=C1/C(=C\C=C2/CCC[C@]3(C)[C@@H]([C@H](C)/C=C/[C@@H](O)C4CC4)CC[C@@H]23)C[C@@H](O)C[C@@H]1O [FF, calcipotriol, reference compound] | – | – | 0.103 µM | 0.0005 µM | – | –
CCC(O)(C#Cc1ccc(C(CC)(CC)c2ccc(C(=O)NC(C)(C)C(=O)O)c(C)c2)cc1C)CC [Ex. 2, 2-(4-{1-Ethyl-1-[4-(3-ethyl-3-hydroxy-pent-1-ynyl)-3-methyl-phenyl]-propyl}-2-methyl-benzoylamino)-2-methyl-propionic acid] | 0.0012 µM | 300 µg/kg/day | 0.021 µM | 0.024 µM | 0.397 µM | 0.0017 µM
